From article PMC12797170, “Potent Competitive Inhibitors of Ecto-5′-nucleotidase (CD73) based on 6‑(Het)aryl-7-deazapurine Ribonucleoside 5′‑O‑Bisphosphonates” (ACS Pharmacology & Translational Science, 2025)
Values after ≈ are worked out from the molar mass of the structure shown.

Assays:
[1] = biological target: T1, recombinant human CD73 (hCD73) (Homo sapiens, UniProt P21589); experiment: CD73 activity assay on recombinant human CD73; type: biochemical; details: ΔGexp = RT ln Ki
T1 sequence (P21589 27-574): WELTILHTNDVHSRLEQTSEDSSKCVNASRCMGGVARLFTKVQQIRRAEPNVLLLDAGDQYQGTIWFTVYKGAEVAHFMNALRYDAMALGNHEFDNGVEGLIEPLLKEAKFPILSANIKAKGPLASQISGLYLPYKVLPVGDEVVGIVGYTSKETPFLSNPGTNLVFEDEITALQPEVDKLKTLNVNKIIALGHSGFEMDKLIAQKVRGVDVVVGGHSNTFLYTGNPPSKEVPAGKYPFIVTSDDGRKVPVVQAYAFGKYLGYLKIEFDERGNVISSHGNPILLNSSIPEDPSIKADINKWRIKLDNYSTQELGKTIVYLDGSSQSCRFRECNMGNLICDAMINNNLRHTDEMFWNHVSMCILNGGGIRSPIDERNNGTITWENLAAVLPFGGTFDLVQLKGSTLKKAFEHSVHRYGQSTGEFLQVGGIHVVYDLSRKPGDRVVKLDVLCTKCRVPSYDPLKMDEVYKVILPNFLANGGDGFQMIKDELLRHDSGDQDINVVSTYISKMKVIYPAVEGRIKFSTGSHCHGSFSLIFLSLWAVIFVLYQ

[2] = Plasma protein binding, equilibrium dialysis, human plasma; type: in vitro ADME; details: undiluted plasma
Description: (§1) Plasma protein binding of the investigated compounds was determined using equilibrium dialysis in single-use Rapid Equilibrium Dialysis devices with an 8 kDa molecular weight cutoff (Thermo Fisher Scientific), following the manufacturer’s protocol. In brief, 50 μL of undiluted human plasma (Biowest), spiked with the test compound at a final concentration of 100 μM, was added to the sample chamber, while 300 μL of phosphate-buffered saline (PBS) was placed in the buffer chamber. Devices were incubated for 4 h at 37 °C with gentle shaking.
(§2) After dialysis, 7.5 μL aliquots from both the plasma and buffer chambers were transferred directly into wells of a 384-well plate. To equalize the matrices for downstream processing, 7.5 μL of PBS was added to each plasma aliquot, and 7.5 μL of plasma was added to each buffer aliquot. Proteins were precipitated by adding four volumes of ice-cold methanol to each well, followed by thorough mixing and incubation at – 20 °C for 30 min. Plates were then stored overnight at 8 °C. Prior to analysis, the plate was centrifuged at 2,000 × g for 20 min at 8 °C. […] The fraction of unbound compound was calculated using the following equations: %Free=c(bufferchamber)/c(plasmachamber)*100% %Bound=100%−%Free

[3] = Plasma protein binding, mouse plasma; type: in vitro ADME; details: mouse, plasma, mouse plasma protein binding; read-out: PPB (m) (converted)
Description: as §1, §2

[4] = Kinetic solubility in PBS; type: physicochemical; details: phosphate-buffered saline, pH 7.4, aqueous buffer, kinetic from dmso stock
Description: Test compounds were prepared as 10 mM stock solutions in DMSO and diluted in phosphate-buffered saline (PBS, pH 7.4) to a 100 μM solution, which was then aliquoted in duplicate. The duplicate samples were incubated in Multiscreen PCF Filter Plates (Merck Millipore) with sealed bottom at room temperature on a shaker for 2 h to allow equilibration. Following incubation, the samples were centrifuged into nonsterile, flat-bottom 96-well plates at 2,200 RCF for 12 min. Supernatants were then diluted 1:99 in a solution of 50% acetonitrile containing 0.1% DMSO. The diluted samples were transferred to 384-well Echo plates, which contained prespotted calibration standards prepared by Echo transfer of 10 mM and 1 mM DMSO stock solutions, resulting in calibration points ranging from 0.05 to 4 μM. Samples and standards were subsequently analyzed by Echo-MS.

[5] = Microsomal stability assay, human liver microsomes; type: in vitro ADME; details: for Mics (hu) comp remaining 60 min: 10 μM; for microsomal CLint at 10 µM: pooled liver microsomes, pH 7.4, read-out: Mics (hu) CLint
[6] = Microsomal stability assay, mouse liver microsomes; type: in vitro ADME; details: for Mics (m) comp remaining 60 min: 10 μM; for microsomal CLint at 10 µM: pooled liver microsomes, pH 7.4, read-out: Mics (m) CLint
in vitro [7] = details: human, plasma
in vitro [8] = details: mouse, plasma
CCRF-CEM = experiment: In vitro cytotoxic activity; type: cell-based; details: Homo sapiens
Description: (§3) All the compounds were also tested for their in vitro cytotoxic activity on a small panel of four cancer cell lines (CCRF-CEM, HepG2, HeLa S3, HL-60) and nonmalignant human dermal fibroblasts (NHDF).

HL-60 = experiment: In vitro cytotoxic activity; type: cell-based; details: Homo sapiens
Description: as §3

HeLa S3 = experiment: In vitro cytotoxic activity; type: cell-based; details: Homo sapiens
Description: as §3

HepG2 = experiment: In vitro cytotoxic activity; type: cell-based; details: Homo sapiens
Description: as §3

[9] = tested on: nonmalignant human dermal fibroblasts (NHDF); experiment: In vitro cytotoxic activity; type: cell-based
Description: as §3

[10] = In vivo pharmacokinetic study, intravenous; set-up: species or system male CD-1 mice; details: plasma, 1 mg/kg, intravenous; for half-life: male, CD-1, mouse, iv, footnote: t1/2 stability in plasma, text: half-life in mouse PK; for clearance: mouse, male CD-1 mice, single dose, read-out: Cl (obs), observed clearance
Description: The pharmacokinetic study was performed by Bienta (Enamine Biology Services) using male CD-1 mice (3 animals, 9 weeks old, body weight ranging from 29.2 to 33.7 g) following intravenous administration. Levels of the test compound were determined by LC-MS/MS in blood plasma over time (seven sampling time points: 5, 15, 30, 60, 120, 240, and 480 min) after a single dose.
Animal treatment and samples preparation were conducted by the Animal Laboratory personnel at Enamine/Bienta.

[11] = Table 6, human plasma, read-out: fup, fraction unbound in human plasma
[12] = human plasma protein binding, read-out: PPB (hu) (converted)

dG_exp, experimental binding free energy [1] | fraction unbound at 4 h, 100 µM [2, 11] | fraction unbound at 4 h, 100 µM [3] | solubility at 2 h [4] | Mics (hu) comp remaining 60 min [5] | Mics (m) comp remaining 60 min [6] | half-life at 10 µM (in vitro [7]) | half-life at 10 µM (in vitro [8]) | fraction unbound at 4 h, 100 µM [2, 12] | microsomal CLint at 10 µM [5] | microsomal CLint at 10 µM [6] | half-life [10] | clearance [10] | SMILES | IC50 (CCRF-CEM) | IC50 (HL-60) | IC50 (HeLa S3) | IC50 (HepG2) | IC50 [9]
–12.3 kcal/mol | 0.001 | 0.017 | 100 µM (≈ 55.5 µg/mL) | 98% | 116% | > 2 h | > 2 h |  |  |  |  |  | O=P(O)(O)CP(=O)(O)OC[C@H]1O[C@@H](n2ccc3c(-c4ccc(F)c5ccccc45)ncnc32)[C@@H](F)[C@@H]1O [34A.23] |  |  |  |  | 
–11.8 kcal/mol | 0.002 | 0.022 | 82 µM (≈ 44.1 µg/mL) | 94% | 90% | > 2 h | > 2 h |  |  |  | 3.13 h | 7.2 mL/min/kg | O=P(O)(O)CP(=O)(O)OC[C@H]1O[C@@H](n2ccc3c(-c4ccc5ccccc5c4)ncnc32)[C@@H](F)[C@@H]1O [34A.7] |  |  |  |  | 
–12.4 kcal/mol | 0.007 | 0.055 | 75 µM (≈ 40.6 µg/mL) | 96% | 115% | > 2 h | > 2 h |  |  |  |  |  | O=P(O)(O)CP(=O)(O)OC[C@H]1O[C@@H](n2ccc3c(-c4cccc5c4CCCC5)ncnc32)[C@@H](F)[C@@H]1O [34A.12] |  |  |  |  | 
–12.5 kcal/mol | 0.014 | 0.058 | 100 µM (≈ 53.8 µg/mL) | 102% | 101% | > 2 h | > 2 h |  |  |  | 1.32 h | 18 mL/min/kg | O=P(O)(O)CP(=O)(O)OC[C@H]1O[C@@H](n2ccc3c(-c4ccnc5ccccc45)ncnc32)[C@@H](F)[C@@H]1O [34A.28] |  |  |  |  | 
–11.8 kcal/mol | 0.017 | 0.065 | 167 µM (≈ 89.7 µg/mL) | 97% | 94% | > 2 h | > 2 h |  |  |  | 1.3 h | 19 mL/min/kg | O=P(O)(O)CP(=O)(O)OC[C@H]1O[C@@H](n2ccc3c(-c4cccc5ccccc45)ncnc32)[C@@H](F)[C@@H]1O [34A.6] |  |  |  |  | 
–11.8 kcal/mol | 0.05 | 0.253 | 73 µM (≈ 39.5 µg/mL) | 90% | 89% | > 2 h | > 2 h |  |  |  |  |  | O=P(O)(O)CP(=O)(O)OC[C@H]1O[C@@H](n2ccc3c(-c4ccc5c(c4)CCCC5)ncnc32)[C@@H](F)[C@@H]1O [34A.17] |  |  |  |  | 

Second part, the compound before the results:

SMILES | dG_exp, experimental binding free energy [1] | fraction unbound at 4 h, 100 µM [2, 11] | fraction unbound at 4 h, 100 µM [3] | solubility at 2 h [4] | Mics (hu) comp remaining 60 min [5] | Mics (m) comp remaining 60 min [6] | half-life at 10 µM (in vitro [7]) | half-life at 10 µM (in vitro [8]) | fraction unbound at 4 h, 100 µM [2, 12] | microsomal CLint at 10 µM [5] | microsomal CLint at 10 µM [6] | half-life [10] | clearance [10] | IC50 (CCRF-CEM) | IC50 (HL-60) | IC50 (HeLa S3) | IC50 (HepG2) | IC50 [9]
O=P(O)(O)CP(=O)(O)OC[C@H]1O[C@@H](n2cnc3c(-c4cccc5ccccc45)ncnc32)[C@H](O)[C@@H]1O [31A.6, [(5-{[6-(Naphth-1-yl)-9H-purin-9-yl]-β-D-ribofuranosyl}oxy)phosphonomethyl]phosphonic Acid] |  |  | 0.628 | 87 µM (≈ 46.7 µg/mL) | 121% | 108% | > 2 h | > 2 h | 0.093 | < 1 µL/min/mg | < 1 µL/min/mg |  |  | > 10 µM | > 10 µM | > 10 µM | > 10 µM | > 10 µM
O=P(O)(O)CP(=O)(O)OC[C@H]1O[C@@H](n2ccc3c(-c4ccncc4)ncnc32)[C@H](O)[C@@H]1O [4A.16] |  |  | 0.833 | 79 µM (≈ 38.4 µg/mL) | 94% | 80% | > 2 h | > 2 h | 0.304 | 3 µL/min/mg | 9 µL/min/mg |  |  | > 10 µM | > 10 µM | > 10 µM | > 10 µM | > 10 µM
O=P(O)(O)CP(=O)(O)OC[C@H]1O[C@@H](n2ccc3c(-c4ccccc4)ncnc32)[C@@H](F)[C@@H]1O [34A.5, [(5-{[4-Phenyl-7H-pyrrolo[2,3-d]pyrimidin-7-yl]-2-deoxy-2-fluoro-β-D-arabinosyl}oxy)phosphonomethyl]phosphonic Acid] | –11.2 kcal/mol | 0.022 | 0.2 | 245 µM (≈ 119 µg/mL) | 93% | 97% | > 2 h | > 2 h |  |  |  | 5.1 h | 3.3 mL/min/kg |  |  |  |  | 
O=P(O)(O)CP(=O)(O)OC[C@H]1O[C@@H](n2ccc3c(-c4ccc(-c5ccccc5)cc4)ncnc32)[C@H](O)[C@@H]1O [4A.9] |  |  | 0.144 | 64 µM (≈ 35.9 µg/mL) |  |  | > 2 h | > 2 h | 0.011 |  |  |  |  | > 10 µM | > 10 µM | > 10 µM | > 10 µM | > 10 µM
N#Cc1ccc(-c2nc(Cl)nc3c2ccn3[C@@H]2O[C@H](COP(=O)(O)CP(=O)(O)O)[C@@H](O)[C@H]2O)c2ccccc12 [7B.34] |  |  | 0.339 | > 100 µM | 97% |  | > 2 h | > 2 h | ≤ 0.01 | < 2 µL/min/mg | < 2 µL/min/mg |  |  | > 10 µM | > 10 µM | > 10 µM | > 10 µM | > 10 µM
O=P(O)(O)CP(=O)(O)OC[C@H]1O[C@@H](n2cnc3c(-c4ccc5ccccc5c4)ncnc32)[C@H](O)[C@@H]1O [31A.7] |  |  | 0.224 | 86 µM (≈ 46.1 µg/mL) | 106% | 87% | > 2 h | > 2 h | ≤ 0.01 | < 1 µL/min/mg | 6 µL/min/mg |  |  | > 10 µM | 7.6 µM | > 10 µM | 4.8 µM | 3.7 µM
